Measured values published in patent US20030228277A1, “Use of ROM production and release inhibitors to treat and prevent intraocular damage” (priority 2002, published 2003).

Experiments:
NADPH oxidase = biological target: T1, NADPH oxidase (Homo sapiens, UniProt P04839); conditions: membrane bound enzyme converting oxygen to superoxide; cited from earlier work
T1 construct: host or cells: phagocytes (not specified further)

[1] = tested on: diabetic patient manifesting proliferative diabetic retinopathy; conditions: ophthalmic gel containing 0.5% histamine dihydrochloride; compared with patients who received no histamine
Description: The purpose of this treatment is to reduce the extent of proliferative diabetic retinopathy, to prevent further manifestations of the disease after removal of any extraretinal neovascularized tissue, and to reduce the likelihood of retinal detachment.
A patient presenting proliferative diabetic retinopathy receives the histamine treatment described herein in combination with surgical treatment of the neovascularized tissue.
Once diagnosed as entering the proliferative stage, the patient receives a full ophthalmic examination to establish a baseline of ocular health. […]
After treatment, the patients' eyes are examined on days one (1), two (2), seven (7), fifteen (15), thirty (30) and sixty (60). On each examination day, the patient is monitored. Additionally, the patient is monitored for posterior vitreous detachments using indirect ophthalmoscopy with scleral depression. Finally, the extent of PDR presented by the patient is continuously monitored through periodic retinal examinations and fluorescein angiograms to monitor the extent of venous beading, IRMA, retinal ischemia, neovascularization, and vitreal hemorrhage. […]

macular hole formation = conditions: 200 μl intravitreal ophthalmic solution containing 5% histamine dihydrochloride; compared with untreated eyes
Method: The described methods contemplate the use of histamine to reduce ROM levels and so as to eliminate the conditions which result in macular hole formation. Following the preliminary examination, an intravitreal injection of histamine dihydrochloride is given to patient's affected eye. If both eyes are affected, they may be treated separately. The eye is injected with the histamine ophthalmic solution intravitreally to promote a reduction of ROM levels. The eye to be treated is injected intravitreally with 200 μl of a histamine ophthalmic solution containing 5% histamine dihydrochloride to prevent or reduce ROM mediate intraocular damage.

[2] = tested on: patient suffering from PDR; conditions: approximately 100 μl of a 2% histamine-containing solution injected intraocularly, repeated every two weeks
Description: As a preliminary step a patient is identified as suffering from PDR. […] The patient is monitored thereafter. The treatment is repeated every two weeks.

[3] = tested on: diabetic patient manifesting preproliferative diabetic retinopathy; conditions: intravitreal ophthalmic solution containing 1% histamine diphosphate; compared to an untreated individual
Method: A diabetic patient manifesting preproliferative diabetic retinopathy is treated for this complication of diabetes mellitus through the intravitreal injection of a histamine compound.
This increased surveillance should include periodic retinal examinations and fluorescein angiograms to monitor the extent of venous beading, IRMA, and retinal ischemia.
When preproliferative diabetic retinopathy begins reaching the proliferative stage, treatment with an ROM inhibitor or scavenger is commenced. This stage is defined as the presence of venous beading in 2 or more quadrants, IRMA in one or more quadrants, and/or microaneurysm and dot hemorrhages in all quadrants. Once these indicia are present, the administration of a ROM inhibitor or scavenger is initiated.
The patient receives a full ophthalmic examination to establish a baseline of ocular health. […]
After treatment, the patient's eyes are examined on days one (1), two (2), seven (7), fifteen (15), thirty (30) and sixty (60). On each examination day, the patient is monitored. Additionally, the patient is monitored for posterior vitreous detachments using indirect ophthalmoscopy with scleral depression. Finally, the extent of PDR presented by the patient is continuously monitored through periodic retinal examinations and fluorescein angiograms to monitor the extent of venous beading, IRMA, and retinal ischemia.

[4] = tested on: patient manifesting age-related macular degeneration; test: Treatment of age-related macular degeneration, intravitreal ROM scavenger; type: in vivo, human; conditions: intravitreal ophthalmic solution containing 0.75% superoxide dismutase; compared to untreated eyes
Method: A patient manifesting age-related macular degeneration is treated with an intravitreal injection of a scavenger of ROM, namely superoxide dismutase.
Once a patient reaches the age of 60, increased ophthalmic surveillance is performed to detect the presence of ADM.
When ADM is diagnosed, a regime of histamine treatment is commenced coupled with or without other treatments such as photocoagulation.
Following the preliminary examination, an intravitreal injection of superoxide dismutase is given to the patient's affected eye manifesting ADM. […] The eye to be treated is injected intravitreally with an ophthalmic solution containing 0.75% superoxide dismutase to prevent or reduce ROM mediate intraocular damage.
Because of the possibility of reoccurrence, the patient should return for periodic examinations on a monthly basis thereafter. […] Additional superoxide dismutase and/or laser treatments may be required if indicia of reoccurring neovascularization are observed.

**Q.** With `NC(=O)C1=CN([C@@H]2O[C@H](COP(=O)(O)OP(=O)(O)OC[C@H]3O[C@@H](n4cnc5c(N)ncnc54)[C@H](O)[C@@H]3O)[C@@H](O)[C@H]2O)C=CC1` [NADH] as the molecule, how does the Km (NADPH oxidase) read?
**A.** Its Km is 450 µM.

**Q.** With `NC(=O)C1=CN([C@@H]2O[C@H](COP(=O)(O)OP(=O)(O)OC[C@H]3O[C@@H](n4cnc5c(N)ncnc54)[C@H](OP(=O)(O)O)[C@@H]3O)[C@@H](O)[C@H]2O)C=CC1` [NADPH] as the molecule, how does the Km (NADPH oxidase) read?
**A.** The Km was 45 µM.

**Q.** For `Cl.Cl.NCCc1c[nH]cn1` [histamine dihydrochloride], which “development of posterior vitreous detachments” value [1] is on record?
**A.** The value was “reduction in the development of posterior vitreous detachments”.

**Q.** Which results are given for `NCCc1c[nH]cn1` [histamine]?
**A.** incidence of macular hole formation (macular hole formation): reduction in the incidence of macular hole formation; symptoms associated with PDR [2]: reduction in symptoms associated with PDR

**Q.** For histamine diphosphate, which “development of proliferative diabetic retinopathy” value [3] is on record?
**A.** The value was “reduction in the development of proliferative diabetic retinopathy”.

**Q.** With superoxide dismutase as the molecule, how does the ocular health [4] read?
**A.** Its ocular health is “improvement in ocular health”.
